From paper PMC4076079, “Selective inhibitors of a PAF biosynthetic enzyme lysophosphatidylcholine acyltransferase 2” (Journal of Lipid Research, 2014)

Tests used:
[1] = tested on: PLA2; test: PLA2 assay; assay type: biochemical, mouse; details: 20 μM compound, soluble protein fraction of peritoneal macrophages; data not shown
Protocol: PAF-AH and PLA2 activities were determined as previously described ([3]). Briefly, a soluble protein fraction of peritoneal macrophages was incubated with 20 μM of each compound at 37°C for 30 min in a total volume of 0.1 ml. For the PAF-AH assay, the reaction mixture contained 2.5 μg protein, 50 mM Tris-HCl (pH 7.4), 5 mM EDTA, 5 mM 2-mercaptoethanol, and 1 μM d4-PAF. For the PLA2 assay, 10 μg protein was incubated in buffer containing 100 mM Tris-HCl (pH 7.4), 1 mg/ml BSA, 4 mM CaCl2, 1 mM DTT, and 2 μM 16:0/20:4 alkyl-PC. A cytosolic PLA2 inhibitor, pyrrophenone (Sigma-Aldrich), was used as a positive control. The reactions were stopped with 0.27 ml of chloroform/methanol (1:2, v/v), followed by the sequential addition of an internal standard (17:0 LPC or d4-lyso-PAF), 0.11 ml chloroform, and 0.1 ml water. Lipids were extracted using the Bligh and Dyer method ([26]). The PAF-AH and PLA2 activities were measured by detecting d4-lyso-PAF and nonlabeled lyso-PAF, respectively, using LC-MS/MS.

[2] = target: T1, hLPCAT2 (Homo sapiens, UniProt Q7L5N7); test: kinetic analysis of lyso-PAFAT activity; assay type: biochemical; details: lyso-PAFAT activity of hLPCAT2, competitive with acetyl-CoA; Dixon plot, Prism; mcPAF-stimulated microsomes; read-out: Inhibition constant (apparent Ki value)
T1 construct: expressed in transfected cells; host or cells: CHO-S-PAFR cells (microsomal fraction), with or without mcPAF stimulation
T1 sequence (Q7L5N7 1-544): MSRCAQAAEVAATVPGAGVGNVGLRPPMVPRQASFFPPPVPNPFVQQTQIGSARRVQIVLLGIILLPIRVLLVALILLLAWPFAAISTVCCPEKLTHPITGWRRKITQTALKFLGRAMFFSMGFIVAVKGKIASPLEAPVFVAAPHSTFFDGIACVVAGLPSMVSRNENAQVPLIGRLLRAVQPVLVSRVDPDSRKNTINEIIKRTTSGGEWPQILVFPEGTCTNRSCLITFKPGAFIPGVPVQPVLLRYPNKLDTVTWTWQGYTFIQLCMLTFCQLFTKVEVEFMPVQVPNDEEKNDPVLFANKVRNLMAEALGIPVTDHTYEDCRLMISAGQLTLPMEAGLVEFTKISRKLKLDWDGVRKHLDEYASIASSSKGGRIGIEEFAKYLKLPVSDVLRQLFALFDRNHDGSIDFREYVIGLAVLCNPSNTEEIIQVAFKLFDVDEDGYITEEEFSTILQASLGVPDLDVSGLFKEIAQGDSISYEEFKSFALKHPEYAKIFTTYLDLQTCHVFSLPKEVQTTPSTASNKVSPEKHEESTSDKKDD
Protocol: Microsomal protein fractions (0.5 μg) supplemented with the indicated compound concentrations were added to the reaction mixture containing 100 mM Tris-HCl (pH 7.4), 1 μM CaCl2, 0.015% Tween-20, and two substrates. For acetyltransferase activity, the substrates were 1 mM acetyl-CoA and 5 μM d4-lyso-PAF; for the acyltransferase activity of LPCAT1 or LPCAT2, the substrates were, respectively, palmitoyl-CoA and d31-16:0 LPC or arachidonoyl-CoA and d4-lyso-PAF (all 5 μM). Each lysophospholipid contained fatty acid at the sn-1 position. After incubation at 37°C for 5 min, the reactions were stopped by adding 300 μl methanol containing 17:0 LPC or 14:0/14:0 PC as an internal standard. Deuterium-labeled products were analyzed by LC-MS/MS (Waters, Milford, MA and Thermo Scientific, Waltham, MA).
To investigate the mechanism by which TSI-01 inhibited lyso-PAFAT activity of hLPCAT2, kinetic analysis was performed. CHO-S-PAFR cells overexpressing hLPCAT2 were stimulated with or without mcPAF for 30 s and analyzed for lyso-PAFAT activity in the microsomal fraction. […] Inhibition constant (apparent Ki value) of TSI-01 was also calculated as 30–40 nM using Prism software (Fig. 6D).
Fig. 6. Effects of TSI-01 on kinetics of LPCAT2 enzymatic activity. […]

With `CC(C)OC(=O)c1ccc(N2C(=O)C(Cl)=C(Cl)C2=O)cc1` [TSI-01, propan-2-yl 4-(3,4-dichloro-2,5-dioxopyrrol-1-yl)benzoate] the PLA2 activity [1] was “not PLA2 activity” and the Ki [2] was 0.03 to 0.04 µM.
